Experimental data as given in US20110305632A1, “PROCESS FOR THE PREPARATION OF ASYMMETRICAL BIS(THIOSEMICARBAZONES)” (THE UNIVERSITY OF MELBOURNE, priority 2008, published 2011).

Experiment: Cyclic voltammetry of Cu(II) bis(thiosemicarbazonato) complexes (half-wave potentials and peak separations)
Type: physicochemical
Settings: DMF
Method: Voltametric experiments were performed with an Autolab (Eco Chemie, Utrecht, Netherlands) computer-controlled electrochemical workstation.
Recent studies have shown that in vivo stability of bifunctional chelators of copper is not only dependent on the thermodynamic stability and kinetic inertness of the complex but also the susceptibility to reduction of Cu(II) to Cu(I). Intracellular reductants with thiols, such as cysteine-rich metallothioneins, may act as effective reductants of Cu(II) and scavengers of the labile Cu(I) ions.

[1] = cyclic voltammogram, scan rate 0.1 V s^−1, glassy carbon electrode
[2] = cyclic voltammogram, scan rate 0.1 V s^−1, potentials relative to SCE, glassy carbon electrode

With `CN=C([S-])N/N=C(C)/C(C)=N/NC([S-])=NC.[Cu+2]` [Cu^II(atsm)] the “reversibility of the Cu(II)/Cu(I) reduction” value (cyclic voltammetry, glassy carbon electrode) was “quasi-reversible”, the “Cu^II/Cu^I Epa − Epc (anodic to cathodic peak separation)” value [1] was 102 mV and the “Cu^III/Cu^II Epa − Epc (anodic to cathodic peak separation)” value [1] was 94 mV. The Cu^II/Cu^I E1/2 [2] was -0.63 V, the Cu^III/Cu^II E1/2 [2] was 0.75 V and the “E1/2 of Cu(II)/Cu(I) reduction” value (vs. SCE (Fc/Fc+ 0.54 V), glassy carbon working electrode) was −0.63 V.
